Patent US20110045101A1, “FUNGICIDAL SUBSTITUTED AZOLES” (E.I. Du Pont De Nemours and Company, priority 2009, published 2011)
Marks after values point to notes of the source that are not given here.

Tests used:
Assay type in all cases: in vivo
Conditions in all cases: 100 = 100% disease control
Botrytis cinerea = experiment: Test C: tomato Botrytis on tomato seedlings, sprayed the day before inoculation, visual disease rating
How it was run: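 Spray to run-off on tomato seedlings; test conc. 200 ppm (≈500 g/ha), some entries 40 ppm. Formulation: acetone 3% of final vol., then acetone/water 50:50 + 250 ppm polyhydric alcohol ester surfactant.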

Alternaria solani = experiment: Test D: tomato early blight, sprayed the day before inoculation, visual disease rating
How it was run: (§1)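 Spray suspension: acetone 3% of final volume, then 50/50 acetone/water plus 250 ppm Trem® 014. Applied to run-off on seedlings at 200 ppm (≈500 g/ha); starred entries tested at 40 ppm.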

Septoria nodorum = experiment: Test F: wheat glume blotch on wheat seedlings, sprayed the day before inoculation, visual disease rating
How it was run: as §1

Septoria tritici = experiment: Test G: wheat leaf blotch on wheat seedlings, sprayed the day before inoculation, visual disease rating
How it was run: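 Spray to run-off, 200 ppm (≈500 g/ha; starred = 40 ppm), acetone/water 50/50 + 250 ppm Trem® 014. Spore inoculation +1 d. 24° C saturated 48 h → 20° C 19 d. Visual rating.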

[1] = test system: Puccinia recondita f. sp. tritici; experiment: Test H: wheat leaf rust, test suspension sprayed after inoculation of wheat seedlings, visual disease rating
How it was run: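 Wheat seedlings inoculated with P. recondita spores, held 24 h saturated at 20 °C, then 2 days in growth chamber at 20 °C; compound suspension (acetone/water with Trem 014) sprayed to run-off afterwards. Rated visually; 200 ppm (≈500 g/ha) unless marked *, which denotes 40 ppm.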

[2] = test system: Puccinia recondita f. sp. tritici; experiment: Test I: wheat leaf rust on wheat seedlings, sprayed the day before inoculation, visual disease rating
How it was run: as §1

[3] = test system: Erysiphe graminis f. sp. tritici; experiment: Test J: wheat powdery mildew on wheat seedlings, sprayed the day before inoculation, visual disease rating
How it was run: as §1

[4] = 200 ppm, 0 = no control relative to controls

COc1cc(F)c(-n2cnc(C)c2-c2ccc(Cl)cc2)c(F)c1 [compound 688]
Test C disease control rating (Botrytis cinerea; 40 ppm (marked *)): 100* % | Test D disease control rating (Alternaria solani; 40 ppm (marked *)): 33* % | Test F disease control rating (Septoria nodorum; 40 ppm (marked *)): 0* % | Test G disease control rating (Septoria tritici; 40 ppm (marked *)): 97* % | Test H disease control rating ([1]; 40 ppm (marked *)): 8* % | Test I disease control rating ([2]; 40 ppm (marked *)): 0* % | Test J disease control rating ([3]; 40 ppm (marked *)): 78* %

CN(C)c1ccc(-n2c(Br)nc(N(C)C)c2-c2c(F)cccc2F)cc1Br [compound 689]
Test C disease control rating (Botrytis cinerea; [4]): 0% | Test D disease control rating (Alternaria solani; [4]): 0% | Test F disease control rating (Septoria nodorum; [4]): 0% | Test G disease control rating (Septoria tritici; [4]): 0% | Test H disease control rating [1, 4]: 0% | Test I disease control rating [2, 4]: 0% | Test J disease control rating [3, 4]: 0%

COC(=O)c1ccc(-n2c(Br)nc(Cl)c2-c2c(F)cccc2F)cc1 [compound 690]
Test C disease control rating (Botrytis cinerea; [4]): 78% | Test D disease control rating (Alternaria solani; [4]): 0% | Test F disease control rating (Septoria nodorum; [4]): 0% | Test G disease control rating (Septoria tritici; [4]): 98% | Test H disease control rating [1, 4]: 0% | Test I disease control rating [2, 4]: 74% | Test J disease control rating [3, 4]: 81%

N#Cc1ccc(F)c(-c2c(Cl)nc(Cl)n2-c2ccc(Cl)nc2)c1F [compound 691]
Test C disease control rating (Botrytis cinerea; 40 ppm (marked *)): 99* % | Test D disease control rating (Alternaria solani; 40 ppm (marked *)): 99* % | Test F disease control rating (Septoria nodorum; 40 ppm (marked *)): 51* % | Test G disease control rating (Septoria tritici; 40 ppm (marked *)): 95* % | Test H disease control rating ([1]; 40 ppm (marked *)): 39* % | Test I disease control rating ([2]; 40 ppm (marked *)): 82* % | Test J disease control rating ([3]; 40 ppm (marked *)): 64* %

CNc1nc(Cl)c(-c2c(F)cc(OC)cc2F)n1-c1ccc(Cl)cc1 [compound 692]
Test C disease control rating (Botrytis cinerea; [4]): 100% | Test D disease control rating (Alternaria solani; [4]): 70% | Test F disease control rating (Septoria nodorum; [4]): 0% | Test G disease control rating (Septoria tritici; [4]): 99% | Test H disease control rating [1, 4]: 8% | Test I disease control rating [2, 4]: 0% | Test J disease control rating [3, 4]: 79%

Cc1nc(Cl)n(-c2ccc(Cl)nc2)c1-c1c(F)cccc1F [compound 693]
Test C disease control rating (Botrytis cinerea; [4]): 100% | Test D disease control rating (Alternaria solani; [4]): 100% | Test F disease control rating (Septoria nodorum; [4]): 99% | Test G disease control rating (Septoria tritici; [4]): 99% | Test H disease control rating [1, 4]: 100% | Test I disease control rating [2, 4]: 100% | Test J disease control rating [3, 4]: 100%

COc1cc(F)c(-c2c(Cl)nc(SC)n2-c2ccc(C)cc2)c(F)c1 [compound 695]
Test C disease control rating (Botrytis cinerea; [4]): 100% | Test D disease control rating (Alternaria solani; [4]): 99% | Test F disease control rating (Septoria nodorum; [4]): 97% | Test G disease control rating (Septoria tritici; [4]): 99% | Test H disease control rating [1, 4]: 97% | Test I disease control rating [2, 4]: 99% | Test J disease control rating [3, 4]: 96%

N#Cc1ccc(F)c(-c2cnc(Cl)n2-c2ccc(Cl)nc2)c1F [compound 697]
Test C disease control rating (Botrytis cinerea; [4]): 100% | Test D disease control rating (Alternaria solani; [4]): 91% | Test F disease control rating (Septoria nodorum; [4]): 0% | Test G disease control rating (Septoria tritici; [4]): 98% | Test H disease control rating [1, 4]: 8% | Test I disease control rating [2, 4]: 19% | Test J disease control rating [3, 4]: 93%

COc1ccc(-c2c(Cl)nc(Cl)n2-c2ccc(Cl)cc2Cl)cc1 [compound 698]
Test C disease control rating (Botrytis cinerea; [4]): 99% | Test D disease control rating (Alternaria solani; [4]): 0% | Test F disease control rating (Septoria nodorum; [4]): 0% | Test G disease control rating (Septoria tritici; [4]): 99% | Test H disease control rating [1, 4]: 0% | Test I disease control rating [2, 4]: 83% | Test J disease control rating [3, 4]: 56%

COc1cc(F)c(-c2cnc(Cl)n2-c2ccc(C(F)(F)F)nc2)c(F)c1 [compound 699]
Test C disease control rating (Botrytis cinerea; [4]): 100% | Test D disease control rating (Alternaria solani; [4]): 99% | Test F disease control rating (Septoria nodorum; [4]): 0% | Test G disease control rating (Septoria tritici; [4]): 99% | Test H disease control rating [1, 4]: 0% | Test I disease control rating [2, 4]: 41% | Test J disease control rating [3, 4]: 99%

Cc1ncc(-c2ccc(Cl)cc2)n1-c1c(F)cc([N+](=O)[O-])cc1F [compound 700]
Test C disease control rating (Botrytis cinerea; 40 ppm (marked *)): 93* % | Test D disease control rating (Alternaria solani; 40 ppm (marked *)): 0* % | Test F disease control rating (Septoria nodorum; 40 ppm (marked *)): 0* % | Test G disease control rating (Septoria tritici; 40 ppm (marked *)): 53* % | Test H disease control rating ([1]; 40 ppm (marked *)): 0* % | Test I disease control rating ([2]; 40 ppm (marked *)): 0* % | Test J disease control rating ([3]; 40 ppm (marked *)): 0* %

N#Cc1ccc(F)c(-c2c(Cl)nc(Br)n2-c2ccc(Cl)nc2)c1F [compound 701]
Test C disease control rating (Botrytis cinerea; [4]): 100% | Test D disease control rating (Alternaria solani; [4]): 100% | Test F disease control rating (Septoria nodorum; [4]): 91% | Test G disease control rating (Septoria tritici; [4]): 99% | Test H disease control rating [1, 4]: 7% | Test I disease control rating [2, 4]: 100% | Test J disease control rating [3, 4]: 95%

CCOc1cc(F)c(-c2c(Cl)ncn2-c2ccc(F)cc2)c(F)c1 [compound 702]
Test C disease control rating (Botrytis cinerea; [4]): 100% | Test D disease control rating (Alternaria solani; [4]): 100% | Test F disease control rating (Septoria nodorum; [4]): 99% | Test G disease control rating (Septoria tritici; [4]): 99% | Test H disease control rating [1, 4]: 59% | Test I disease control rating [2, 4]: 86% | Test J disease control rating [3, 4]: 99%

CCOc1cc(F)c(-c2c(Cl)ncn2-c2cccc(F)c2)c(F)c1 [compound 703]
Test C disease control rating (Botrytis cinerea; [4]): 100% | Test D disease control rating (Alternaria solani; [4]): 100% | Test F disease control rating (Septoria nodorum; [4]): 100% | Test G disease control rating (Septoria tritici; [4]): 99% | Test H disease control rating [1, 4]: 39% | Test I disease control rating [2, 4]: 98% | Test J disease control rating [3, 4]: 97%

COc1cc(F)c(-c2c(Cl)nc(Br)n2-c2ccc(OC)nc2)c(F)c1 [compound 705]
Test C disease control rating (Botrytis cinerea; [4]): 99% | Test D disease control rating (Alternaria solani; [4]): 100% | Test F disease control rating (Septoria nodorum; [4]): 99% | Test G disease control rating (Septoria tritici; [4]): 99% | Test H disease control rating [1, 4]: 100% | Test I disease control rating [2, 4]: 100% | Test J disease control rating [3, 4]: 100%

COc1cc(F)c(-c2c(Br)nc(Cl)n2-c2ccc(C(F)(F)F)nc2)c(F)c1 [compound 706]
Test C disease control rating (Botrytis cinerea; [4]): 57% | Test D disease control rating (Alternaria solani; [4]): 100% | Test F disease control rating (Septoria nodorum; [4]): 0% | Test G disease control rating (Septoria tritici; [4]): 99% | Test H disease control rating [1, 4]: 25% | Test I disease control rating [2, 4]: 86% | Test J disease control rating [3, 4]: 100%

Cc1nc(Cl)c(-c2ccc(Cl)cc2)n1-c1c(F)cc([N+](=O)[O-])cc1F [compound 708]
Test C disease control rating (Botrytis cinerea; [4]): 100% | Test D disease control rating (Alternaria solani; [4]): 0% | Test F disease control rating (Septoria nodorum; [4]): 82% | Test G disease control rating (Septoria tritici; [4]): 99% | Test H disease control rating [1, 4]: 7% | Test I disease control rating [2, 4]: 80% | Test J disease control rating [3, 4]: 89%

COc1ccc(F)c(-c2c(Cl)nc(Cl)n2-c2ccc(Cl)nc2)c1F [compound 709]
Test C disease control rating (Botrytis cinerea; [4]): 100% | Test D disease control rating (Alternaria solani; [4]): 100% | Test F disease control rating (Septoria nodorum; [4]): 100% | Test G disease control rating (Septoria tritici; [4]): 99% | Test H disease control rating [1, 4]: 100% | Test I disease control rating [2, 4]: 100% | Test J disease control rating [3, 4]: 100%

COc1cc(F)c(-c2c(Br)nc(Cl)n2-c2ccc(OC)nc2)c(F)c1 [compound 710]
Test C disease control rating (Botrytis cinerea; [4]): 100% | Test D disease control rating (Alternaria solani; [4]): 100% | Test F disease control rating (Septoria nodorum; [4]): 100% | Test G disease control rating (Septoria tritici; [4]): 98% | Test H disease control rating [1, 4]: 99% | Test I disease control rating [2, 4]: 100% | Test J disease control rating [3, 4]: 98%

Fc1cccc(F)c1-c1c(Cl)nc(Br)n1-c1ccc(Cl)nc1 [compound 711]
Test C disease control rating (Botrytis cinerea; [4]): 100% | Test D disease control rating (Alternaria solani; [4]): 100% | Test F disease control rating (Septoria nodorum; [4]): 99% | Test G disease control rating (Septoria tritici; [4]): 99% | Test H disease control rating [1, 4]: 98% | Test I disease control rating [2, 4]: 99% | Test J disease control rating [3, 4]: 99%

COc1cc(F)c(-n2c(Cl)nc(CCl)c2-c2cccc(F)c2)c(F)c1 [compound 712]
Test C disease control rating (Botrytis cinerea; 40 ppm (marked *)): 100* % | Test D disease control rating (Alternaria solani; 40 ppm (marked *)): 57* % | Test F disease control rating (Septoria nodorum; 40 ppm (marked *)): 0* % | Test G disease control rating (Septoria tritici; [4]): 95% | Test H disease control rating ([1]; 40 ppm (marked *)): 7* % | Test I disease control rating ([2]; 40 ppm (marked *)): 86* % | Test J disease control rating ([3]; 40 ppm (marked *)): 61* %

COc1cc(F)c(-c2c(Cl)nc(C)n2-c2ccc(OC)nc2)c(F)c1 [compound 714]
Test C disease control rating (Botrytis cinerea; [4]): 100% | Test D disease control rating (Alternaria solani; [4]): 100% | Test F disease control rating (Septoria nodorum; [4]): 100% | Test G disease control rating (Septoria tritici; [4]): 99% | Test H disease control rating [1, 4]: 100% | Test I disease control rating [2, 4]: 100% | Test J disease control rating [3, 4]: 100%

Cc1nc(Br)n(-c2ccc(Cl)nc2)c1-c1c(F)ccc(C#N)c1F [compound 715]
Test C disease control rating (Botrytis cinerea; [4]): 100% | Test D disease control rating (Alternaria solani; [4]): 100% | Test F disease control rating (Septoria nodorum; [4]): 78% | Test G disease control rating (Septoria tritici; [4]): 99% | Test H disease control rating [1, 4]: 100% | Test I disease control rating [2, 4]: 99% | Test J disease control rating [3, 4]: 73%

Cc1nc(Cl)n(-c2ccc(Cl)nc2)c1-c1c(F)ccc(C#N)c1F [compound 716]
Test C disease control rating (Botrytis cinerea; [4]): 100% | Test D disease control rating (Alternaria solani; [4]): 100% | Test F disease control rating (Septoria nodorum; [4]): 95% | Test G disease control rating (Septoria tritici; [4]): 100% | Test H disease control rating [1, 4]: 100% | Test I disease control rating [2, 4]: 99% | Test J disease control rating [3, 4]: 99%

N#Cc1ccc(F)c(-c2c(CCl)nc(Cl)n2-c2ccc(Cl)nc2)c1F [compound 717]
Test C disease control rating (Botrytis cinerea; [4]): 100% | Test D disease control rating (Alternaria solani; [4]): 100% | Test F disease control rating (Septoria nodorum; [4]): 0% | Test G disease control rating (Septoria tritici; [4]): 99% | Test H disease control rating [1, 4]: 0% | Test I disease control rating [2, 4]: 96% | Test J disease control rating [3, 4]: 79%
